Structures can show the parent of a compound that is named as a salt.
biological target: AaDOP2 (Aedes aegypti, UniProt H6D5H2); experiment: AaDOP2 antagonist screen of the LOPAC1280 library (HEK-CRELuc-Aadop2 cells, luminescence); assay type: cell-based; details: not given
Sequence (H6D5H2 1-476): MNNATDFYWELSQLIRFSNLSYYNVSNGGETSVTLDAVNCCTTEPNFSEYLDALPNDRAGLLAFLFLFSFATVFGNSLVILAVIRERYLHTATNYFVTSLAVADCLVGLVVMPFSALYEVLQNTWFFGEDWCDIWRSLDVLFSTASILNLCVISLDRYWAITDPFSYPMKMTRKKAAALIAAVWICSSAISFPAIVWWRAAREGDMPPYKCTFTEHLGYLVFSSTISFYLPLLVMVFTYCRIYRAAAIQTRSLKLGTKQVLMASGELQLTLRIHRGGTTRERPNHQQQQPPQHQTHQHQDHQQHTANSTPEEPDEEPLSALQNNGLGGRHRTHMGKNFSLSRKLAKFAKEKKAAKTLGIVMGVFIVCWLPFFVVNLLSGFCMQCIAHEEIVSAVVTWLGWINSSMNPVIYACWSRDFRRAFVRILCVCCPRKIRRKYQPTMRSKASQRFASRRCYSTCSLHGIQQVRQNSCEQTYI

Compound | Compound effect (percent receptor signaling in presence of test compound, relative lux units relative to the SCH23390 control)
Cn1cnc([N+](=O)[O-])c1Sc1ncnc2nc[nH]c12 [Compound 51, Azathioprine] | 103
Cl.Clc1ccc(N2CCN(Cc3c[nH]c4ncccc34)CC2)cc1 [Compound 728, L-745,870 hydrochloride] | 111
NC(=O)COc1c(F)cc(SCCNS(=O)(=O)c2ccccc2)cc1F [Compound 800, 2,6-Difluoro-4-[2-(phenylsulfonylamino)ethylthio]phenoxyacetamide] | 89
O=[N+]([O-])c1cc2nc(O)c(O)nc2cc1[N+](=O)[O-] [Compound 355, DNQX] | 100
CN1C[C@@H](NS(=O)(=O)N(C)C)C[C@@H]2c3cccc4c3c(cn4C)C[C@H]21 [Compound 827, Mesulergine hydrochloride] | 88
c1ccc2c(CC3=NCCN3)cccc2c1 [Compound 859, Naphazoline hydrochloride] | 90
N[C@H](C(=O)O)[C@H]1C[C@@H]1C(=O)O [Compound 350, (2S,1'S,2'S)-2-(carboxycyclopropyl)glycine] | 97
c1ccc2c(c1)OCC(C1=NCCN1)O2 (stereo not shown) [Compound 650, Idazoxan hydrochloride] | 103
O=c1[nH]c2cc(Cl)ccc2c(O)c1-c1cccc(Oc2ccccc2)c1 [Compound 691, L-701,324] | 90
OC[C@H]1O[C@@H](n2cnc3c(NC4CCCCC4)ncnc32)[C@H](O)[C@@H]1O [Compound 322, N6-Cyclohexyladenosine] | 100
O=S(=O)(c1cccc2c(I)cccc12)N1CCCNCC1 [Compound 641, ML-7] | 85
CCCCCCCC/C=C\CCCCCCCC(=O)O [Compound 898, Oleic Acid] | 95
CN1C(=O)CCS(=O)(=O)C1c1ccc(Cl)cc1 (stereo not shown) [Compound 343, Chlormezanone] | 93
O=c1oc(Cl)c(Cl)c2ccccc12 [Compound 413, 3,4-Dichloroisocoumarin] | 96
CCCCC/C=C\C[C@@H](O)/C=C/c1cccc(C[C@@H](O)CCCCO)n1 [Compound 1232, U-75302] | 107
C#CCn1c(=O)c2c(ncn2C)n(C)c1=O [Compound 459, 3,7-Dimethyl-I-propargylxanthine] | 101
C[C@H](CS)C(=O)N1CCC[C@H]1C(=O)O [Compound 255, Captopril] | 112

Compound | Compound effect (percent receptor signaling in presence of test compound, relative lux units relative to the SCH23390 control)
CN[C@@H]1C[C@@H](c2ccc(Cl)c(Cl)c2)c2ccccc21 [Compound 669, Indatraline hydrochloride] | 54
COc1ccc2c(c1)c(CC(=O)O)c(C)n2Cc1ccc(Cl)cc1 [Compound 232, 1-(4-Chlorobenzyl)-5-methoxy-2-methylindole-3-acetic acid] | 77
C[C@@]12C(=O)OC(=O)[C@]1(C)[C@H]1CC[C@@H]2O1 [Compound 297, Cantharidin] | 96
N[C@@H](C(=O)N[C@@H]1C(=O)N2C(C(=O)O)=C(Cl)CS[C@H]12)c1ccccc1 [Compound 290, Cefaclor] | 87
CC/C(=C(\c1ccccc1)c1ccc(OCCN(C)C)cc1)c1ccccc1 [Compound 1217, Tamoxifen citrate] | 87
Clc1cccc(Cl)c1N=C1NCCN1 [Compound 299, Clonidine hydrochloride] | 100
O=C(O)CCCCC1CCSS1 (racemic) [Compound 1185, (±)-alpha-Lipoic Acid] | 111
Cl.NC1(C(=O)O)CCCCC1 [Compound 132, 1-Amino-1-cyclohexanecarboxylic acid hydrochloride] | 110
CN(C)c1cc2c(Nc3ccc4c(cnn4Cc4ccccc4)c3)ncnc2cn1 [Compound 547, GW2974] | 68
CN(CCOc1ccc(C[C@H](Nc2ccccc2C(=O)c2ccccc2)C(=O)O)cc1)c1ccccn1 [Compound 554, GW1929] | 131
CC[C@H](NC(=O)c1c(C)c(-c2ccccc2)nc2ccccc12)c1ccccc1 [Compound 154, SB 222200] | 92
O=c1c2ccccc2nc2n1CCc1c-2[nH]c2ccccc12 [Compound 1046, Rutaecarpine] | 78
CN1[C@@H](CC(=O)c2ccccc2)CCC[C@H]1C[C@H](O)c1ccccc1.Cl [Compound 702, alpha-Lobeline hydrochloride] | 89
CC(=O)N[C@@H](Cc1c[nH]c2ccccc12)C(=O)OCc1cc(C(F)(F)F)cc(C(F)(F)F)c1 [Compound 59, L-732,138] | 100
R-(-)-Deprenyl hydrochloride [Compound 813] | 93
C[C@H](Cc1ccccc1)Nc1ncnc2c1ncn2[C@@H]1O[C@H](CO)[C@@H](O)[C@H]1O [Compound 944, R(-)-N6-(2-Phenylisopropyl)adenosine] | 112

same assay, conditions: 10 µM compound, 300 nM dopamine, 2 hr; hit = compound effect <20

Compound | Compound effect (percent receptor signaling in presence of test compound, relative lux units relative to the SCH23390 control)
Cc1ccc(OCC(O)C(C)NC(C)C)c2c1CCC2.Cl (stereo not shown) [Compound 672, ICI 118,551 hydrochloride] | 92%
C/C(=C\c1ccc(C(=O)O)cc1)c1ccc2c(c1)C(C)(C)CCC2(C)C [Compound 1166, TTNPB] | 98%
COC1(C2=NCCN2)COc2ccccc2O1.Cl (stereo not shown) [Compound 1058, RX 821002 hydrochloride] | 121%
CC(=O)O[C@H]1C[C@@]2(C)[C@@H](C[C@@H](O)[C@H]3[C@@]4(C)CC[C@@H](O)[C@@H](C)[C@@H]4CC[C@@]32C)/C1=C(\CCC=C(C)C)C(=O)[O-].[Na+] [Compound 510, Fusidic acid sodium] | 131%
